Source: US10800732B2, “Substituted malonamides and their use as antibacterial drugs” (National Taiwan University, priority 2015, dated 2020)
≈ marks a conversion by molar mass, not a printed value. Where two headings read alike, the source gives them in different places.

Columns and labels:
[1] = system: S. aureus NCTC 8325; format: cell-based, Staphylococcus aureus; details: for fold MIC change (resistance): sub-inhibitory concentration for 30 consecutive days
[2] = system: MRSA ATCC 49476; assay: MIC, MRSA ATCC 49476; format: cell-based, methicillin-resistant Staphylococcus aureus; details: Staphylococcus aureus; MRSA ATCC 49476; read-out: MIC
[3] = system: MRSA ATCC 33592; assay: MIC, MRSA ATCC 33592; format: cell-based, methicillin-resistant Staphylococcus aureus; details: Staphylococcus aureus, MRSA ATCC 33592, read-out: MIC
[4] = system: S. epidermidis ATCC 12228; assay: MIC, S. epidermidis ATCC 12228; format: cell-based; details: Staphylococcus epidermidis, ATCC12228; S. epidermidis ATCC 12228; read-out: MIC
[5] = system: MRSA SCCmec VT; assay: MIC, MRSA SCCmec VT; format: cell-based, methicillin-resistant Staphylococcus aureus; details: Staphylococcus aureus; MRSA SCCmec VT; read-out: MIC
[6] = system: S. aureus NCTC 8325; assay: MIC, S. aureus NCTC 8325 (CLSI broth microdilution / agar dilution); format: cell-based, Staphylococcus aureus
[7] = Staphylococcus aureus, NCTC8325
[8] = Staphylococcus aureus, MSSA NCTC 8325, Table 6, read-out: MIC

Row | Compound | MIC [6, 8] [µg/mL] | MIC ([3]; Table 6) [µg/mL] | other results
1 | O=C(N[C@H](CO)[C@H](O)c1ccc([N+](=O)[O-])cc1)C(Cl)Cl [Chloramphenicol] | – | – | fold MIC change (resistance) [1]: no resistance; MIC [2]: 8 µg/mL (≈ 24.8 µM); MIC [3]: 32 µg/mL (≈ 99 µM); MIC [4]: 2 µg/mL (≈ 6.19 µM); MIC [5]: 64 µg/mL (≈ 198 µM); MIC ([6]; Staphylococcus aureus, NCTC8325, S. aureus NCTC 8325, read-out: MIC): 4 µg/mL (≈ 12.4 µM)
2 | CC1COc2c(N3CCN(C)CC3)c(F)cc3c(=O)c(C(=O)O)cn1c23 (stereo not shown) [Ofloxacin] | – | – | fold MIC change (resistance) [1]: 8 fold; MIC [2]: 0.5 µg/mL (≈ 1.38 µM); MIC [3]: 0.25 µg/mL (≈ 0.692 µM); MIC [4]: 0.25 µg/mL (≈ 0.692 µM); MIC [5]: 0.25 µg/mL (≈ 0.692 µM); MIC [6, 7]: 0.125 µg/mL (≈ 0.346 µM)
3 | CO[C@H]1/C=C/O[C@@]2(C)Oc3c(C)c(O)c4c(O)c(c(/C=N/N5CCN(C)CC5)c(O)c4c3C2=O)NC(=O)/C(C)=C\C=C\[C@H](C)[C@H](O)[C@@H](C)[C@@H](O)[C@@H](C)[C@H](OC(C)=O)[C@@H]1C [Rifampicin] | – | – | time to over 64-fold MIC change ([1]; sub-inhibitory concentration, serial passage): ≤ 6 days; MIC [2]: 0.25 µg/mL (≈ 0.304 µM); MIC [3]: > 64 µg/mL; MIC [4]: < 0.004 µg/mL; MIC [5]: 0.5 µg/mL (≈ 0.608 µM); MIC [6, 7]: 0.125 µg/mL (≈ 0.152 µM)
4 | O=C(Nc1ccc(Cl)c(C(F)(F)F)c1)C1(C(=O)Nc2ccc(Cl)c(C(F)(F)F)c2)CC1 [SC5020, N,N′-bis(4-chloro-3-(trifluoromethyl)phenyl)cyclopropane-1,1-dicarboxamide] | > 8 | – | –
5 | C#Cc1cccc(NC(=O)C2(C(=O)Nc3cccc(C#C)c3)CC2)c1 [SC5021, N,N′-bis(3-ethynylphenyl)cyclopropane-1,1-dicarboxamide] | 8 (≈ 24.4 µM) | – | –
6 | O=C(Nc1ccccc1)C(CCCl)C(=O)Nc1ccccc1 [SC5022, 2-(2-chloroethyl)-N^1,N^3-diphenylmalonamide] | > 8 | – | –
7 | O=C(Nc1cccc(C(F)(F)F)c1)C(CCCl)C(=O)Nc1cccc(C(F)(F)F)c1 [SC5023, 2-(2-chloroethyl)-N^1,N^3-bis(3-(trifluoromethyl)phenyl)malonamide] | 2 (≈ 4.42 µM) | 1 (≈ 2.21 µM) | –
8 | O=C(Nc1ccc(OC(F)(F)F)cc1)C(CCCl)C(=O)Nc1ccc(OC(F)(F)F)cc1 [SC5024, 2-(2-chloroethyl)-N^1,N^3-bis(4-(trifluoromethoxy)phenyl)malonamide] | 1 (≈ 2.06 µM) | 1 (≈ 2.06 µM) | –
9 | O=C(Nc1cc(Cl)cc(Cl)c1)C(CCCl)C(=O)Nc1cc(Cl)cc(Cl)c1 [SC5025, 2-(2-chloroethyl)-N^1,N^3-bis(3,5-dichlorophenyl)malonamide] | 0.25 (≈ 0.55 µM) | 0.25 (≈ 0.55 µM) | –
10 | C#Cc1cccc(NC(=O)C(CCCl)C(=O)Nc2cccc(C#C)c2)c1 [SC5026, 2-(2-chloroethyl)-N^1,N^3-bis(3-ethynylphenyl)malonamide] | > 8 | – | –
11 | O=C(Nc1cccc(Cl)c1)C(CCCl)C(=O)Nc1cccc(Cl)c1 [SC5027, 2-(2-chloroethyl)-N^1,N^3-bis(3-chlorophenyl)malonamide] | > 8 | – | –
12 | O=C(Nc1cccc([N+](=O)[O-])c1)C(CCCl)C(=O)Nc1cccc([N+](=O)[O-])c1 [SC5028, 2-(2-chloroethyl)-N^1,N^3-bis(3-nitrophenyl)malonamide] | > 64 | – | –
13 | Cc1ccc(NC(=O)C(CCCl)C(=O)Nc2ccc(C)c(O)c2)cc1O [SC5029, 2-(2-chloroethyl)-N^1,N^3-bis(3-hydroxy-4-methylphenyl)malonamide] | 8 (≈ 21.2 µM) | – | –
14 | O=C(Nc1ccc(Cl)c(O)c1)C(CCCl)C(=O)Nc1ccc(Cl)c(O)c1 [SC5030, N^1,N^3-bis(4-chloro-3-hydroxyphenyl)-2-(2-chloroethyl)malonamide] | > 16 | – | –
15 | O=C(Nc1cccc(O)c1)C(CCCl)C(=O)Nc1cccc(O)c1 [SC5031, 2-(2-chloroethyl)-N^1,N^3-bis(3-hydroxyphenyl)malonamide] | > 64 | – | –
16 | O=C(Nc1cc(C(F)(F)F)cc(C(F)(F)F)c1)C(CCCl)C(=O)Nc1cc(C(F)(F)F)cc(C(F)(F)F)c1 [SC5032, N,N^3-bis(3,5-bis(trifluoromethyl)phenyl)-2-(2-chloroethyl)malonamide] | 32 (≈ 54.4 µM) | – | –

Row | Compound | MIC [6, 8] [µg/mL] | MIC ([3]; Table 6) [µg/mL] | other results
17 | O=C(Nc1ccc([N+](=O)[O-])c(C(F)(F)F)c1)C(CCCl)C(=O)Nc1ccc([N+](=O)[O-])c(C(F)(F)F)c1 [SC5034, 2-(2-chloroethyl)-N^1,N^3-bis(4-nitro-3-(trifluoromethyl)phenyl)malonamide] | 1 (≈ 1.84 µM) | – | –
18 | O=C(Nc1cc(Cl)cc(Cl)c1)C(CCCl)C(=O)Nc1cc(C(F)(F)F)cc(C(F)(F)F)c1 (stereo not shown) [SC5036, N^1-(3,5-bis(trifluoromethyl)phenyl)-2-(2-chloroethyl)-N^3-(3,5-dichlorophenyl) malonamide] | 0.25 (≈ 0.479 µM) | 0.5 (≈ 0.958 µM) | –
19 | C=CCC(C(=O)Nc1ccc(Cl)c(C(F)(F)F)c1)C(=O)Nc1ccc(Cl)c(C(F)(F)F)c1 [SC5037, 2-allyl-N^1,N^3-bis(4-chloro-3-(trifluoromethyl)phenyl)malonamide] | 8 (≈ 16 µM) | > 32 | –
20 | C#Cc1cccc(NC(=O)C(CC=C)C(=O)Nc2cccc(C#C)c2)c1 [SC5038, 2-allyl-N^1,N^3-bis(3-ethynylphenyl)malonamide] | > 32 | > 32 | –
21 | C=CCC(C(=O)Nc1cccc(CC)c1)C(=O)Nc1cccc(CC)c1 [SC5039, 2-allyl-N^1,N^3-bis(3-ethylphenyl)malonamide] | > 32 | > 32 | –
22 | C=CCC(C(=O)Nc1cc(Cl)cc(Cl)c1)C(=O)Nc1cc(Cl)cc(Cl)c1 [SC5040, 2-allyl-N^1,N^3-bis(3,5-dichlorophenyl)malonamide] | > 32 | > 32 | –
23 | O=C(Nc1cc(Cl)cc(Cl)c1)C(CCCl)C(=O)Nc1ccc([N+](=O)[O-])c(C(F)(F)F)c1 (stereo not shown) [SC5041, 2-(2-chloroethyl)-N^1-(3,5-dichlorophenyl)-N^3-(4-nitro-3-(trifluoromethyl)phenyl)malonamide] | 0.5 (≈ 1 µM) | 0.5 (≈ 1 µM) | –
24 | CCCNC(=O)C(CCCl)C(=O)NCCC [SC5046, 2-(2-chloroethyl)-N1,N3-dipropylmalonamide] | > 64 | > 64 | –
25 | CCCCNC(=O)C(CCCl)C(=O)NCCCC [SC5047, N1,N3-dibutyl-2-(2-chloroethyl)malonamide] | > 64 | > 64 | –
26 | O=C(NC1CCCCC1)C(CCCl)C(=O)NC1CCCCC1 [SC5048, 2-(2-chloroethyl)-N1,N3-dicyclohexylmalonamide] | > 64 | > 64 | –
27 | CCCNC(=O)C(CCCl)C(=O)Nc1ccc(Cl)c(C(F)(F)F)c1 (stereo not shown) [SC5049, N1-(4-chloro-3-(trifluoromethyl)phenyl)-2-(2-chloroethyl)-N3-propylmalonamide] | > 64 | > 64 | –
28 | C=CCNC(=O)C(CCCl)C(=O)Nc1ccc(Cl)c(C(F)(F)F)c1 (stereo not shown) [SC5050, N1-allyl-N3-(4-chloro-3-(trifluoromethyl)phenyl)-2-(2-chloroethyl)malonamide] | > 64 | > 64 | –
29 | C=CCNC(=O)C(CCCl)C(=O)NCC=C [SC5051, N1,N3-diallyl-2-(2-chloroethyl)malonamide] | > 64 | > 64 | –
30 | CCCCNC(=O)C(CCCl)C(=O)Nc1ccc(Cl)c(C(F)(F)F)c1 (stereo not shown) [SC5052, N1-butyl-N3-(4-chloro-3-(trifluoromethyl)phenyl)-2-(2-chloroethyl)malonamide] | > 64 | > 64 | –
31 | O=C(Nc1ccc(Cl)c(C(F)(F)F)c1)C(CCCl)C(=O)NC1CCCCC1 (stereo not shown) [SC5053, N1-(4-chloro-3-(trifluoromethyl)phenyl)-2-(2-chloroethyl)-N3-cyclohexylmalonamide] | > 64 | > 64 | –
32 | N^1,N^3-bis(4-pentafluorosulfurphenyl)-2-(2-chloroethyl)malonamide [SC5033] | – | – | MIC ([6]; MSSA NCTC 8325, Table 6): 32 µg/mL
